Reference: patent publication US6737383B1, “Herbicidal oxadiazolidines” (priority 1999, dated 2004)

What was measured:
blackgrass = assay: Test E blackgrass; format: in vivo, Alopecurus myosuroides; conditions: Preemergence
Alexandergrass = assay: Test D Alexandergrass; format: in vivo, Brachiaria plantaginea; conditions: Preemergence, 0 to 100 scale
How it was run: (§1)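 Weed seeds planted in sandy loam; species kept apart in individual pots or compartments. Preemergence tests: treatment to soil surface within one day. Greenhouse growth, then visual injury scoring at 14–21 days (0–100).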

Italian ryegrass = assay: Test E Italian ryegrass; format: in vivo, Lolium multiflorum; conditions: Preemergence
goosegrass = assay: Test D goosegrass; format: in vivo, Eleusine indica; conditions: Preemergence, 0 to 100 scale
How it was run: as §1

winter wheat [1] = assay: Test E winter wheat; format: in vivo, Triticum aestivum; conditions: Postemergence; for Plant response rating, Wheat (winter): 0 to 100 scale
How it was run: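 Visual evaluation versus untreated controls after about 21 to 28 days in the greenhouse. Compound was in a surfactant-containing non-phytotoxic solvent; postemergence plants were treated at the 1- to 4-leaf stage, grown in a 60:40 sandy loam and potting mix blend.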

crabgrass = assay: Test B pre/postemergence crabgrass; format: in vivo, Digitaria sanguinalis
How it was run: (§2)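 Test chemicals in a non-phytotoxic solvent mixture with surfactant were sprayed preemergence onto planted seeds and postemergence onto plants 2 to 18 cm tall (1- to 4-leaf stage). After twelve to sixteen days in a greenhouse, injury was visually rated against untreated controls from 0 (no effect) to 10 (complete control).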

Johnson grass = assay: Test D Johnson grass; format: in vivo, Sorghum halepense; conditions: Preemergence, 0 to 100 scale
How it was run: as §1

green foxtail = assay: Test E green foxtail; format: in vivo, Setaria viridis; conditions: Preemergence
tall mallow = assay: Test D tall mallow; format: in vivo, Malva sylvestris; conditions: Preemergence, 0 to 100 scale; for Tall Mallow plant response rating: 0 no injury, 100 complete control
How it was run: as §1

wild oat = assay: Test E wild oat; format: in vivo, Avena fatua; conditions: Preemergence
winter wheat [2] = assay: Test E winter wheat; format: in vivo, Triticum aestivum; conditions: Preemergence
cocklebur = assay: Test B pre/postemergence cocklebur; format: in vivo, Xanthium strumarium
How it was run: as §2

surinam grass = assay: Test B pre/postemergence surinam grass; format: in vivo, Brachiaria decumbens
How it was run: as §2

sandbur = assay: Test D sandbur; format: in vivo, Cenchrus echinatus; conditions: Preemergence, 0 to 100 scale; for Sandbur plant response rating: 0 no injury, 100 complete control
How it was run: as §1

winter barley = assay: Test E winter barley; format: in vivo, Hordeum vulgare; conditions: Preemergence
corn = assay: Test B pre/postemergence corn; format: in vivo, Zea mays
How it was run: as §2

[3] = Rate 62 g/ha, 0 to 100 scale, 0 no effect, 100 complete control
[4] = Rate 125 g/ha, 0 to 100 scale (0 no effect, 100 complete control)
[5] = Rate 64 g/ha, 0 no injury, 100 complete control
[6] = Rate 125 g/ha, 0 no injury, 100 complete control
[7] = Postemergence, Rate 125 g/ha, scale of 0 to 10 where 0 is no effect and 10 is complete control
[8] = Preemergence, Rate 62 g/ha, scale 0 to 10 (0 no effect, 10 complete control)
[9] = Preemergence, Rate 125 g/ha, 0 is no effect, 10 is complete control
[10] = Preemergence, Rate 250 g/ha, scale 0 to 10, 0 is no effect, 10 is complete control
[11] = Preemergence, Rate 500 g/ha, scale 0 to 10 (0 no effect, 10 complete control)
[12] = Rate 62 g/ha, Postemergence, scale of 0 to 10 where 0 is no effect and 10 is complete control
[13] = Rate 250 g/ha, Postemergence, scale 0 to 10, 0 is no effect, 10 is complete control
[14] = Rate 500 g/ha, Postemergence, scale 0 to 10

CC(C)N(C(=O)n1oc(=O)n(C)c1=O)c1ccc(F)cc1 [Compound 138]
Plant response rating, Blackgrass (blackgrass; [3]): 50 | Plant response rating, Blackgrass (blackgrass; [4]): 60 | Blackgrass plant response rating (0 to 100 scale) (blackgrass; Rate 250 g/ha): 70 | Plant response rating, Alexandergrass (Alexandergrass; [5]): 80 | Plant response rating, Alexandergrass (Alexandergrass; [6]): 80 | Plant response rating, Alexandergrass (Alexandergrass; Rate 250 g/ha): 98 | Plant response rating, Alexandergrass (Alexandergrass; Rate 500 g/ha): 100 | Plant response rating, I. Ryegrass (Italian ryegrass; [3]): 60 | Plant response rating, I. Ryegrass (Italian ryegrass; [4]): 70 | I. Ryegrass plant response rating (0 to 100 scale) (Italian ryegrass; Rate 250 g/ha): 80 | Plant response rating, Goosegrass (goosegrass; [5]): 98 | Plant response rating, Goosegrass (goosegrass; [6]): 100 | Plant response rating, Goosegrass (goosegrass; Rate 250 g/ha): 100 | Plant response rating, Goosegrass (goosegrass; Rate 500 g/ha): 100 | Plant response rating, Wheat (winter) (winter wheat [1]; Rate 62 g/ha): 60 | Plant response rating, Wheat (winter) (winter wheat [1]; Rate 125 g/ha): 70 | Wheat (winter) plant response rating (winter wheat [1]; Rate 250 g/ha, 0 to 100 scale where 0 is no effect and 100 is complete control): 80 | Crabgrass plant response rating (crabgrass; [7]): 9 | Crabgrass plant response rating (crabgrass; [8]): 9 | Crabgrass plant response rating (0 to 10 scale) (crabgrass; [9]): 9 | Crabgrass plant response rating (crabgrass; [10]): 10 | Crabgrass plant response rating (crabgrass; [11]): 10 | Crabgrass plant response rating (crabgrass; [12]): 8 | Plant response rating, Crabgrass (crabgrass; [13]): 9 | Crabgrass plant response rating (crabgrass; [14]): 9 | Plant response rating, Johnsongrass (Johnson grass; [5]): 40 | Plant response rating, Johnsongrass (Johnson grass; [6]): 65 | Plant response rating, Johnsongrass (Johnson grass; Rate 250 g/ha): 100 | Plant response rating, Johnsongrass (Johnson grass; Rate 500 g/ha): 100 | Plant response rating, Green foxtail (green foxtail; [3]): 60 | Plant response rating, Green foxtail (green foxtail; [4]): 70 | Green foxtail plant response rating (0 to 100 scale) (green foxtail; Rate 250 g/ha): 75 | Tall Mallow plant response rating (tall mallow; Rate 64 g/ha): 40 | Tall Mallow plant response rating (tall mallow; Rate 125 g/ha): 40 | Plant response rating, Tall Mallow (tall mallow; Rate 250 g/ha): 70 | Plant response rating, Tall Mallow (tall mallow; Rate 500 g/ha): 100 | Plant response rating, Wild oat (wild oat; [3]): 50 | Plant response rating, Wild oat (wild oat; [4]): 60 | Wild oat plant response rating (0 to 100 scale) (wild oat; Rate 250 g/ha): 65 | Plant response rating, Wheat (winter) (winter wheat [2]; [3]): 60 | Plant response rating, Wheat (winter) (winter wheat [2]; [4]): 70 | Wheat (winter) plant response rating (0 to 100 scale) (winter wheat [2]; Rate 250 g/ha): 80 | Cocklebur plant response rating (cocklebur; [7]): 0 | Cocklebur plant response rating (cocklebur; [8]): 0 | Cocklebur plant response rating (cocklebur; [10]): 0 | Cocklebur plant response rating (cocklebur; [11]): 0 | Cocklebur plant response rating (cocklebur; [12]): 0 | Plant response rating, Cocklebur (cocklebur; [13]): 2 | Cocklebur plant response rating (cocklebur; [14]): 3 | B. signalgrass plant response rating (surinam grass; [7]): 7 | B. signalgrass plant response rating (surinam grass; [8]): 2 | B. signalgrass plant response rating (0 to 10 scale) (surinam grass; [9]): 4 | B. signalgrass plant response rating (surinam grass; [10]): 6 | B. signalgrass plant response rating (surinam grass; [11]): 9 | B. signalgrass plant response rating (surinam grass; [12]): 5 | Plant response rating, B. signalgrass (surinam grass; [13]): 8 | B. signalgrass plant response rating (surinam grass; Rate 500 g/ha, Postemergence, scale of 0 to 10 where 0 is no effect and 10 is complete control): 8 | Sandbur plant response rating (sandbur; Rate 64 g/ha): 65 | Sandbur plant response rating (sandbur; Rate 125 g/ha): 65 | Plant response rating, Sandbur (sandbur; Rate 250 g/ha): 98 | Plant response rating, Sandbur (sandbur; Rate 500 g/ha): 100 | Plant response rating, Barley (winter) (winter barley; [3]): 30 | Plant response rating, Barley (winter) (winter barley; [4]): 60 | Barley (winter) plant response rating (0 to 100 scale) (winter barley; Rate 250 g/ha): 90 | Corn plant response rating (corn; [7]): 4 | Corn plant response rating (corn; [8]): 0 | Corn plant response rating (0 to 10 scale) (corn; [9]): 3 | Corn plant response rating (corn; [10]): 8 | Corn plant response rating (corn; [11]): 9 | Corn plant response rating (corn; [12]): 0 | Plant response rating, Corn (corn; [13]): 7 | Corn plant response rating (corn; [14]): 7
